Results on nine compounds are retold here after US20230218558A1, “NOVEL THERAPEUTIC USE OF PLEUROMUTILINS” (priority 2020, published 2023).

As a reminder, the viability is the share of living cells, or the viability signal relative to a control. Low values mean more harm to the cells, high ones less harm to the cells.

Values after ≈ are worked out from the molar mass of the structure shown. Like-named read-outs stand apart in the source and are kept apart here.

Series [1] deals with MRC-5 cells. Put plainly: Cell viability of uninfected drug control wells, MRC-5 cells, XTT. The following applies: Example 1; for cytotoxic effect on the viability of the cell control: concentration 10 μM (b103 prints 10 M for Lefamulin); for cytotoxic effect: concentration 50 μM. For orientation: Tetrazolium dyes change colour on reduction, which living cells bring about.
Series [2] concerns influenza A/Puerto Rico/8/34 (H1N1). It counts as in vivo, BALB/c mice. Particulars: for effect on bodyweight / bodyweight loss: SC, investigated doses, FIG. 7A; for lung viral titre (TCID50 on MDCK cells): Day 3 and Day 6, Lefamulin at both doses, compared with vehicle treated control.
Series [3] deals with human rhinovirus strain HRV16 strain 11757. The experiment in a line: Inhibition of virus-induced CPE, human rhinovirus in H1-HeLa cells. It counts as cell-based. The following applies: Example 9, rhinovirus HRV1611757, 4 h pretreatment, MOI 0.0005. The procedure: Cell viability determination as well as EC50 and TC50 calculations were performed as described in Examples 1 and 3.

The subject of series [4] is influenza virus strain A/PR/8/34. The experiment in a line: Inhibition of virus-induced CPE, influenza virus in MDCK cells. It counts as cell-based.
A further series deals with MDCK cells. The following applies: Example 10; for CC50: read-out: TC50, MDCK cells.
A further series has as its system HeLa cells. The experiment in a line: Cell viability, HeLa cells, XTT. The following applies: read-out: TC50, Example 6.
A further series concerns Huh7 cells. The experiment in a line: Cell viability, Huh7 cells, XTT.
A further series concerns HEp2 cells. Put plainly: Cell viability of uninfected drug control wells, HEp2 cells, XTT. The following applies: Example 3.
The test system of series [5] is influenza A virus strain (PR8). Particulars: concentration of 2 mg/mL; cited from earlier work.
In series [6] the test system is herpes simplex type 1 (HSV-1) virus. Particulars: cited from earlier work.
The subject of another series is polio virus. The following applies: cited from earlier work.
Series [7] has as its system vesicular stomatitis virus (VSV). The following applies: cited from earlier work.
Series [8] has as its system MRC-5 cells. The following applies: human.
For series [9], the system named is Measles virus strain Edmonston. The experiment in a line: microbe, parasite or virus in culture. It counts as cell-based. The following applies: Measles morbillivirus, HeLa.
The test system of series [10] is influenza A virus, porcine reproductive and respiratory syndrome virus (PRRSV) type 1 and 2. Particulars: WO 2009/106839; 4 hours post inoculation; cited from earlier work.
Where [11] appears, read: high dose: 105 mg/kg/day SC in three injections until day 3, then 70 mg/kg twice daily.
Where [12] appears, read: read-out: TC50, Example 8, Zika experiment.

Consider `C=C[C@]1(C)C[C@@H](OC(=O)CS[C@@H]2CC[C@@H](N)C[C@H]2O)[C@]2(C)C(C)CC[C@]3(CCC(=O)[C@H]32)[C@@H](C)[C@@H]1O` (stereo partly drawn) [Lefamulin, 14-O-{[(1R, 2R, 4R)-4-amino-2-hydroxy-cyclohexylsulfanyl]-acetyl}-mutilin], for which the “cytotoxic effect on the viability of the cell control” value in the series with MRC-5 cells [1] is on record as “no cytotoxic effect”; with HEp2 cells (concentrations 10 μM and 50 μM), “no cytotoxic effect”. For the same compound, the cytotoxic effect result in the series on MRC-5 cells [1] and in the series on HEp2 cells (concentration 100 μM) was “cytotoxic effect” in each case. Besides, in the series with MRC-5 cells [1] (uninfected MRC-5 cells, 6 days), the TC50 is 55.3 µM. For the same compound, the “effect on bodyweight / bodyweight loss” value in [2] (BALB/c mice) is listed as “did not have a significant effect”. Further, the “lung viral titre (TCID50 on MDCK cells)” value in [2] is on record as “reduced lung viral titres”. In addition, the “clinical scores compared to vehicle” value in [2] (setting [11]) is given as “increase in clinical scores”. Besides, the “survival compared to vehicle” value in [2] (setting [11]) was “decrease in survival”. Also, the “bronchial degeneration and alveolar inflammation (histopathology)” value in [2] (high dose, Day 6 lungs, compared to vehicle) was “significant reduction”. Further, in [2] (high dose, Day 6 lungs, compared to vehicle treated control), the overall histopathology score entry was “overall significant reduction”. This compound also came in with a survival in [2] (lower dose: 35 mg/kg SC twice daily (70 mg/kg/day), until day 6) of 90%. For the same compound, the results for the EC50 in series [3] and in series [4] were 9.34 µM and more than 23.8 µM, respectively. For the same compound, the “concentrations cytotoxic to MDCK cells” value with MDCK cells is “greater than 23 μM”. For the same compound, the CC50 was determined as 23.8 µM in the series on MDCK cells; 72.7 µM in the series with HeLa cells; 23.3 µM in the series on Huh7 cells (read-out: TC50, Example 7, Dengue experiment); 23.4 µM in the series on Huh7 cells (setting [12]).

Consider `CCOC(=O)C1=C[C@@H](OC(CC)CC)[C@H](NC(C)=O)[C@@H](N)C1` [Oseltamivir], for which the “effect on bodyweight / bodyweight loss” value in series [2] (BALB/c mice) is reported as “reduction”. Moreover, in series [2] (BALB/c mice, positive control treatment, FIG. 7B), the clinical scores entry is “reduction”. In addition, the “lung viral titre (TCID50 on MDCK cells)” value in series [2] is on record as “reduced lung viral titres”. In series [4], this compound showed an EC50 of 0.06 µM. For the same compound, the CC50 in the series with MDCK cells was more than 200 µM.

For the compound `C=C[C@]1(C)C[C@@H](OC(=O)CO)[C@]2(C)[C@H](C)CC[C@]3(CCC(=O)[C@H]32)[C@@H](C)[C@@H]1O` [Pleuromutilin], the antiviral activity entry in [5] was “antiviral activity”; in the series with polio virus, “did not show antiviral activity”. Moreover, the “concentration that conferred a 50% protection of the cytopathic effect induced by HSV-1 (CPE50)” value in series [6] was 15 µg/mL. Moreover, in series [6] (read-out: concentration that conferred a 50% protection of the cytopathic effect induced by HSV-1 (CPE50)), the EC50 was 40 µM. For the same compound, the “activity against vesicular stomatitis virus” value in series [7] is given as “activity”.

As to `CCC(CC)COC(=O)[C@H](C)N[P@](=O)(OC[C@H]1O[C@@](C#N)(c2ccc3c(N)ncnn23)[C@H](O)[C@@H]1O)Oc1ccccc1` [Remdesivir], in the series on MRC-5 cells [8], the CC50 was more than 5 µM.

Turning to `NC(=O)c1ncn([C@@H]2O[C@H](CO)[C@@H](O)[C@H]2O)n1` [Ribavirin], the EC50 in [9] came to 1.88 µg/mL (≈ 7.7 µM).

With `CCOC(=O)/C=C/[C@H](C[C@@H]1CCNC1=O)NC(=O)[C@@H](CC(=O)[C@@H](NC(=O)c1cc(C)on1)C(C)C)Cc1ccc(F)cc1` [Rupintrivir], in [3], the EC50 was determined as 0.0049 µM.

On to `CC(C)OC(=O)[C@H](C)N[P@](=O)(OC[C@H]1O[C@@H](n2ccc(=O)[nH]c2=O)[C@](C)(F)[C@@H]1O)Oc1ccccc1` [Sofosbuvir], for which the CC50 with Huh7 cells (setting [12]) was more than 10 µM.

Consider `C=C[C@]1(C)C[C@@H](OC(=O)CSCCN(CC)CC)[C@]2(C)[C@H](C)CC[C@]3(CCC(=O)[C@H]32)[C@@H](C)[C@@H]1O` [Tiamulin], for which, in the series with MRC-5 cells [1], the “cytotoxic effect on the viability of the cell control” value is listed as “no cytotoxic effect was observed”. In addition, the cytotoxic effect result with MRC-5 cells [1] was “a cytotoxic effect was observed”. The same compound returned a CC50 with MRC-5 cells [8] (6 days) of 62.9 µM. The viability with HEp2 cells (concentration 10 μM) is 84%; in the series on HEp2 cells (concentration 50 μM), 70.0%.

For the compound `C=C[C@]1(C)C[C@@H](OC(=O)CSC(C)(C)CNC(=O)[C@H](N)C(C)C)[C@]2(C)[C@H](C)CC[C@]3(CCC(=O)[C@H]32)[C@@H](C)[C@@H]1O` [Valnemulin], in series [10], the antiviral activity result is listed as “did not exhibit antiviral activity”.
